Test results from ChEMBL document CHEMBL5465560, “Selectivity Literature for EUbOPEN Chemogenomic Library” (2024).
Each block holds one compound with its values, some of them ahead of it.

Columns and labels:
[1] = biological target: T1, Ephrin type-B receptor 4 (Homo sapiens) (UniProt P54760); conditions: at 10 µM
T1 sequence (whole entry): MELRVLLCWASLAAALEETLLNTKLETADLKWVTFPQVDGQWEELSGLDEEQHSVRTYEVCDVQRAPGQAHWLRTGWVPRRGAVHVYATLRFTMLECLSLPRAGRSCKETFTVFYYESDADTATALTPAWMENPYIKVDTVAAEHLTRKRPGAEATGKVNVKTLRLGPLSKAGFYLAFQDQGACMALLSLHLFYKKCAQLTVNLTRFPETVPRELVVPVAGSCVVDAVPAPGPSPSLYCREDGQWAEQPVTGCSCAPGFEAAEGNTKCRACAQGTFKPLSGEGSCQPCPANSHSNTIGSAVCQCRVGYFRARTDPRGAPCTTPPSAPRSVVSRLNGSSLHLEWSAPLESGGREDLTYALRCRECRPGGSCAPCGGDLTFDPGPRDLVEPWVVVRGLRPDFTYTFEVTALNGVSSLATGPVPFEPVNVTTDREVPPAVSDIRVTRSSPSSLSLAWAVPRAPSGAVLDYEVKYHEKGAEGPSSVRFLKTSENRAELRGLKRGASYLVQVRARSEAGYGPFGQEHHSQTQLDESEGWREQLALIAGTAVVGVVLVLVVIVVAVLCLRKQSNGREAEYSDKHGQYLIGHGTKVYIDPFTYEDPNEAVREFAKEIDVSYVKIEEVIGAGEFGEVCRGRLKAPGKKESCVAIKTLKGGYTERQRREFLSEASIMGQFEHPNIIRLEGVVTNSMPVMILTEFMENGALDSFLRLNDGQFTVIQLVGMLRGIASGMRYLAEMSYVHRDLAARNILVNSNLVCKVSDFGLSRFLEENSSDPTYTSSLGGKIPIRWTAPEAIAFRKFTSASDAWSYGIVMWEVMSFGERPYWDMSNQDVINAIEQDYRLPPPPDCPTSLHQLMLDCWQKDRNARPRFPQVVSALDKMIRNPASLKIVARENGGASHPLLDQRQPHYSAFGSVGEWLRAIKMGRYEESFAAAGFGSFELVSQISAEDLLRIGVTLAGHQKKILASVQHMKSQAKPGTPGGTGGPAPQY

[2] = biological target: Dual specificity protein kinase CLK2 (Homo sapiens, UniProt P49760); experiment: Selectivity interaction (KinomeScan (DiscoverX)) EUB0001079a CLK2; conditions: at 1 µM
Chain of Dual specificity protein kinase CLK2 (P49760 whole entry, looked up): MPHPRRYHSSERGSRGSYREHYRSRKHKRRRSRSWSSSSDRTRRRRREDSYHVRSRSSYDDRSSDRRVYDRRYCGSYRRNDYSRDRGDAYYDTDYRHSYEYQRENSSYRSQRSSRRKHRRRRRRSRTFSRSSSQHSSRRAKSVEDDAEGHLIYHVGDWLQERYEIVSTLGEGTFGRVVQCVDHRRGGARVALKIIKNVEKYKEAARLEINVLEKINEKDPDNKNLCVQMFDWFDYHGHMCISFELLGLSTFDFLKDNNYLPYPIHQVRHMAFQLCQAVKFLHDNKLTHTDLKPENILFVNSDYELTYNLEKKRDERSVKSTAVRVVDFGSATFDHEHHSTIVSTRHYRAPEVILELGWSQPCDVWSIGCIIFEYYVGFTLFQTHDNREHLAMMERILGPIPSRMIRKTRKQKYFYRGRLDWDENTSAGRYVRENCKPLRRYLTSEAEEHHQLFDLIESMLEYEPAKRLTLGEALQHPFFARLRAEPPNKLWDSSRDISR

[3] = biological target: Ribosomal protein S6 kinase alpha-5 (Homo sapiens) (UniProt O75582); experiment: Selectivity interaction (KinomeScan (DiscoverX)) EUB0000607a RPS6KA5; conditions: at 10 µM
Chain of Ribosomal protein S6 kinase alpha-5 (Homo sapiens) (O75582 whole entry, looked up): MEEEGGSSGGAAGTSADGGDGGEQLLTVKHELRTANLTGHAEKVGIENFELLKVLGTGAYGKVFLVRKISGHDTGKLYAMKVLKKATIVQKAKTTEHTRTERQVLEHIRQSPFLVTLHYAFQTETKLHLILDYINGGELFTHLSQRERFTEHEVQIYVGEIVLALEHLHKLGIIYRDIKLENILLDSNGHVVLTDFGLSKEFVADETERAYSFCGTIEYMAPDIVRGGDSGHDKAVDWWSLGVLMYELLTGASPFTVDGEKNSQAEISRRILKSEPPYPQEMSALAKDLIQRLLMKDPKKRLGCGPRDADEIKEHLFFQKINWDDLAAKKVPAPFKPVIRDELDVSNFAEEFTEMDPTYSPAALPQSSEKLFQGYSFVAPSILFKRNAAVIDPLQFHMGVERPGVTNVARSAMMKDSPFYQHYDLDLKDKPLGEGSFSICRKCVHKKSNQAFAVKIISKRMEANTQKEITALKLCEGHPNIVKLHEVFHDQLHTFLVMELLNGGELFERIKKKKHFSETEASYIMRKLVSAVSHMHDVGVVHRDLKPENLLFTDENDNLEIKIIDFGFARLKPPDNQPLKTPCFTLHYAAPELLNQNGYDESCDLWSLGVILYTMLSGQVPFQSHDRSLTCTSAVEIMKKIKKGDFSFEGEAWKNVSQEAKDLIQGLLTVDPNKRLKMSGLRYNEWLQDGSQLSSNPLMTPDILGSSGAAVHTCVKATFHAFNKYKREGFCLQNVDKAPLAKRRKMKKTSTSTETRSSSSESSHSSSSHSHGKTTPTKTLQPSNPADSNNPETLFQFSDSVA

[4] = biological target: T2, Mitogen-activated protein kinase 13 (Homo sapiens) (UniProt O15264); experiment: Selectivity interaction (ActivX KiNativ screen (ex vivo kinase selectivity in human PBMCs)) EUB0001619a MAPK13; assay type: cell-based; conditions: PBMC, at 1 µM
T2 sequence (whole entry): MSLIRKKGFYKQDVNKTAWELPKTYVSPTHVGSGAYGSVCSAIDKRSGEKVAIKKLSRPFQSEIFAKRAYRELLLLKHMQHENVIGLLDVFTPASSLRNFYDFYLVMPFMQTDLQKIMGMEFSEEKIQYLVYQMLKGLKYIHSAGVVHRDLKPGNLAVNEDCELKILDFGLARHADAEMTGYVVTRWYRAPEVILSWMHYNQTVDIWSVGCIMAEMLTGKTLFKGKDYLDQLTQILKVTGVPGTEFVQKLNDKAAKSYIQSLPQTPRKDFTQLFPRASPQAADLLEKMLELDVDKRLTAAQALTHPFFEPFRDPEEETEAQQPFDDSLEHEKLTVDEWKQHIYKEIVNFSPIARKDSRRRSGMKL

[5] = biological target: Phosphatidylinositol 4,5-bisphosphate 3-kinase catalytic subunit gamma isoform (Homo sapiens) (UniProt P48736); experiment: Selectivity interaction (KinomeScan (DiscoverX)) EUB0000595a PIK3CG; conditions: at 10 µM
Chain of Phosphatidylinositol 4,5-bisphosphate 3-kinase catalytic subunit gamma isoform (Homo sapiens) (P48736 whole entry, looked up, canonical isoform): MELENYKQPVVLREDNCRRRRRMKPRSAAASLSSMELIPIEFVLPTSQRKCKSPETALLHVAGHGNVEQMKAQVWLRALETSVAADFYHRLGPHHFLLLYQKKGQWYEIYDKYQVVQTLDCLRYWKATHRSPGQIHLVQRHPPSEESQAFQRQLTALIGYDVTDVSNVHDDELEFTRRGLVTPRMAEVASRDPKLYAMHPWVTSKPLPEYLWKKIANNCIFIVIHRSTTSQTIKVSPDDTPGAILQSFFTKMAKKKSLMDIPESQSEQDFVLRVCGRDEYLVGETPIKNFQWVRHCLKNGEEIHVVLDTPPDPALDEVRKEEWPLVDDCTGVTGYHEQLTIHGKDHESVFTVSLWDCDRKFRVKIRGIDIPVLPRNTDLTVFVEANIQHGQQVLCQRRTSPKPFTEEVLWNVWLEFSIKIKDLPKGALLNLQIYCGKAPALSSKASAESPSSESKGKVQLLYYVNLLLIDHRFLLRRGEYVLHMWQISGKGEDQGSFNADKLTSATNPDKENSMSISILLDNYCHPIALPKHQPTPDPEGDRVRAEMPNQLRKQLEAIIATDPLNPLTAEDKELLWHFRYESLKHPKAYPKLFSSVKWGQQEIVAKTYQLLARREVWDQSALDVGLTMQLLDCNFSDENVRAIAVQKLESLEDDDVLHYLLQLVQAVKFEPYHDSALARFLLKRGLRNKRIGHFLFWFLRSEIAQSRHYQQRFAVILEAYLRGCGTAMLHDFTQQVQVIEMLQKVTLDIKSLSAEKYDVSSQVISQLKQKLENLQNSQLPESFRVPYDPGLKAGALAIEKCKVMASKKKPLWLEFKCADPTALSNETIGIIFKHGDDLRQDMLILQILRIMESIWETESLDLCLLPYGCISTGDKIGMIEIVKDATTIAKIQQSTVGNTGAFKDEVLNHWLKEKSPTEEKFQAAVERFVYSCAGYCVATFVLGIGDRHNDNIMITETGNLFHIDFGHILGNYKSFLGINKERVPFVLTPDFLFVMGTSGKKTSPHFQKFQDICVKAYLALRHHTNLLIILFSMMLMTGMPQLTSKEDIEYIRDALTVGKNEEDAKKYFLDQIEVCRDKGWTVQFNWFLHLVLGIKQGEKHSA

[6] = biological target: Serine/threonine-protein kinase 24 (Homo sapiens) (UniProt Q9Y6E0); experiment: Selectivity interaction (Kinase panel (KiNativ target engagement assay in Jurkat cells)) EUB0001635a STK24; assay type: cell-based; conditions: Selectivity number of off-targets 0.0, Selectivity number of targets 233.0, Source Knowledge https://www.sciencedirect.com/science/article/pii/S2451945619300674?via%3Dihub, at 1 µM
Chain of Serine/threonine-protein kinase 24 (Homo sapiens) (Q9Y6E0 whole entry, looked up): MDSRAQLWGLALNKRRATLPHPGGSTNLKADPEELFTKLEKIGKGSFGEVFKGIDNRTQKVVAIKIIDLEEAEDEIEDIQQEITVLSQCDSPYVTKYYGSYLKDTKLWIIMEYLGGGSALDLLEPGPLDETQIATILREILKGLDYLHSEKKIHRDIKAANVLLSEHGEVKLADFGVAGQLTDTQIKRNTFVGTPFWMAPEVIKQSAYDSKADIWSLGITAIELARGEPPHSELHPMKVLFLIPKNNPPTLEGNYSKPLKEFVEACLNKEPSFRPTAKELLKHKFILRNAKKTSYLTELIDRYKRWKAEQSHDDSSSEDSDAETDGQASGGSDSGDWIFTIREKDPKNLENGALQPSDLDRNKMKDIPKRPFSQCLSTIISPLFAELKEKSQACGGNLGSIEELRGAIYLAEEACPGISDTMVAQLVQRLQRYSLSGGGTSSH

[7] = biological target: T3, Mitogen-activated protein kinase kinase kinase kinase 2 (Homo sapiens) (UniProt Q12851); experiment: Selectivity interaction (ActivX KiNativ screen (kinase selectivity in THP-1 cell lysates)) EUB0000639a MAP4K2; assay type: subcellular; conditions: lysate
T3 sequence (whole entry): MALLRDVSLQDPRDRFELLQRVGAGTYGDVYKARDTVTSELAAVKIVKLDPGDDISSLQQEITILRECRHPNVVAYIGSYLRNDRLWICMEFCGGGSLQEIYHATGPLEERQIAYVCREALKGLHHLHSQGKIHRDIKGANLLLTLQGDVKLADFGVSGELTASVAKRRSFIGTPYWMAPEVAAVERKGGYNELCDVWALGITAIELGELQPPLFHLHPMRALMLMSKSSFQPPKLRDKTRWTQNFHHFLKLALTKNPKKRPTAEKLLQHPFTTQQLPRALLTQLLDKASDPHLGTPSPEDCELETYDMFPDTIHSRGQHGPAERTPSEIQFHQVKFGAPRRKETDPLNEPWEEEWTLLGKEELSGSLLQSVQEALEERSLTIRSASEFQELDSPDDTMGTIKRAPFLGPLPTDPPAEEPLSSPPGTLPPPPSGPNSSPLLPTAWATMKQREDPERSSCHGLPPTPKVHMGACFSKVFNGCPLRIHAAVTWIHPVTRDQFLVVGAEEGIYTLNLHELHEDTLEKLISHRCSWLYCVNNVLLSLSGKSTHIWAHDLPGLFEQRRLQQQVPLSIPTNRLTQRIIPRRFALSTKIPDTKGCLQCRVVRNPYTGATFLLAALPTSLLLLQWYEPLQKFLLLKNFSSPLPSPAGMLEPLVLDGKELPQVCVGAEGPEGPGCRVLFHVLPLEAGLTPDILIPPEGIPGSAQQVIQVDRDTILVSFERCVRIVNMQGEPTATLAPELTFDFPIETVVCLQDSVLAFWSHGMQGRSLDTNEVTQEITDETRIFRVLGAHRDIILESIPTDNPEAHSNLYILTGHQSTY

[8] = biological target: Serine/threonine-protein kinase PAK 6 (Homo sapiens) (UniProt Q9NQU5); experiment: Selectivity interaction (KinomeScan (DiscoverX)) EUB0000229b PAK6; conditions: at 10 µM
Chain of Serine/threonine-protein kinase PAK 6 (Homo sapiens) (Q9NQU5 whole entry, looked up): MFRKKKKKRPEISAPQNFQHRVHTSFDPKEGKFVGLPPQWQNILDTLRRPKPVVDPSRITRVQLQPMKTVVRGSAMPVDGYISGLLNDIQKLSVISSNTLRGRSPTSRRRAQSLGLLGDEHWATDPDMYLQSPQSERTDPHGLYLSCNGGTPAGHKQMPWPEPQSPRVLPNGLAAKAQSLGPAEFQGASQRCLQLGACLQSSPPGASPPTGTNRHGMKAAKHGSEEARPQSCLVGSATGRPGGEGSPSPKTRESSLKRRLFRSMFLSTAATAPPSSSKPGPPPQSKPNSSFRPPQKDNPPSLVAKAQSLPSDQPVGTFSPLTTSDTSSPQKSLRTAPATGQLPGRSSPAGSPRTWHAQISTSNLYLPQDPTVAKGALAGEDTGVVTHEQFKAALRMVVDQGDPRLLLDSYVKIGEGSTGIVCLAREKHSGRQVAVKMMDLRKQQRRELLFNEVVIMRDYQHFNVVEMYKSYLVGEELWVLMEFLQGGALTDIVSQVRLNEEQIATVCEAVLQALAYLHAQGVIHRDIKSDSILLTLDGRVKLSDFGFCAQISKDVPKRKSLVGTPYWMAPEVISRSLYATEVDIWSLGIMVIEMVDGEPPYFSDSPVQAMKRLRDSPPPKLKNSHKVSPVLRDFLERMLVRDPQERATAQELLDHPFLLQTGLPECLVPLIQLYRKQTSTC

[9] = biological target: Wee1-like protein kinase (Homo sapiens) (UniProt P30291); experiment: Selectivity interaction (ProQinase) EUB0000171b WEE1
Chain of Wee1-like protein kinase (Homo sapiens) (P30291 whole entry, looked up): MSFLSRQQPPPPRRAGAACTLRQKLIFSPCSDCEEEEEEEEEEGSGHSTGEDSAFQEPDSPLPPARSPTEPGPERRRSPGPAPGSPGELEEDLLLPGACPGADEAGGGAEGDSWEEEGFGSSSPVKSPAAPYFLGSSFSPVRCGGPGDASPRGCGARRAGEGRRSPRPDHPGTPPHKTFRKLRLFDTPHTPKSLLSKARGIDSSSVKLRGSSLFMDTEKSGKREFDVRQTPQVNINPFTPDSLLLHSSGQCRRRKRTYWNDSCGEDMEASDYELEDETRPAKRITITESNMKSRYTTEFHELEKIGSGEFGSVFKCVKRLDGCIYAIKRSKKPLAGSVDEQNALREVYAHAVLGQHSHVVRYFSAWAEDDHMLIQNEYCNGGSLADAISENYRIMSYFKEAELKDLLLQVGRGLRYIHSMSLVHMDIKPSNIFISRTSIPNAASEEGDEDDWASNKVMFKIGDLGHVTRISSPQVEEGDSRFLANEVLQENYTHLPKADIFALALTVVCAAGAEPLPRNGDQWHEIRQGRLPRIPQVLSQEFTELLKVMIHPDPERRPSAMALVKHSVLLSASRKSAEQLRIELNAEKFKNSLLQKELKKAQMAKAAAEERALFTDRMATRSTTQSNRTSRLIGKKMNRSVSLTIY

[10] = biological target: Serine/threonine-protein kinase PAK 6 (Homo sapiens) (UniProt Q9NQU5); experiment: Selectivity interaction (Kinase panel (Z-LYTE Assay)) EUB0001632a PAK6; conditions: at 10 µM

% of control [1]: 100%
SMILES: CCN(CC)CCCCNc1ncc2cc(-c3cc(OC)cc(OC)c3)c(NC(=O)NC(C)(C)C)nc2n1

SMILES: Nc1cnc(N2CCc3cc(S(=O)(=O)Nc4c(F)cc(Cl)cc4F)cc(N4CCCC4=O)c32)nc1 [TP-020n]
% of control [2]: 100%

SMILES: CNC(=O)Nc1ccc(-c2nc(N3CC4CCC(C3)O4)c3cnn(C4CCC5(CC4)OCCO5)c3n2)cc1
% of control [3]: 86%

SMILES: N#Cc1cccc(-c2c[nH]c3ncnc(N4CCOCC4)c23)c1
% of inhibition [4]: -6%

SMILES: COCC(=O)NC/C=C/c1ccc2ncnc(Nc3ccc(Oc4ccc(C)nc4)c(C)c3)c2c1 [CP-724714]
% of control [5]: 100%

SMILES: C=CC(=O)Nc1ccc(C(=O)Nc2[nH]nc3c2CN(C(=O)N[C@H](CN(C)C)c2ccccc2)C3(C)C)cc1
% of engagement [6]: 41.8%

% of inhibition ([7]; at 0.01 µM): -10% | % of inhibition ([7]; at 0.04 µM): -5.8% | % of inhibition ([7]; at 0.2 µM): -8.2% | % of inhibition ([7]; at 1 µM): -2.9% | % of inhibition ([7]; at 5 µM): -12.1%
SMILES: CC[C@@H]1[C@H](F)C(=O)N[C@@H]1COc1nccc2cc(C(N)=O)c(OC)cc12 [ZIMLOVISERTIB]

SMILES: COc1cc(N(C)c2ccnc3ccc(C(F)(F)F)cc23)cc(OC)c1OC
% binding [8]: 96%

% of control ([9]; at 1 µM): 73% | % of control ([9]; at 5 µM): 79%
SMILES: C=CC(=O)Nc1cccc(C(=O)Nc2ccc(Nc3cc(-c4[nH]c(SC)nc4C)ccn3)cc2)c1

% of control [10]: -4.06%
SMILES: Cn1cc(-n2cnc3c(NCc4nc5cc(Cl)c(Cl)cc5[nH]4)nc(N4CCOCC4)nc32)cn1
